Some test systems named below: Escherichia coli IP76-24; Micrococcus luteus A270; Candida krusei IOC 4559; Escherichia coli SBS 363; Carnobacterium mobile; Fusarium oxysporum.
Assay in all cases: ≥ marks a high value that may be exact or a test limit, other limits are often not marked, values filed in µg/mL are converted to µM
Assay [1] has as its system Staphylococcus aureus NBRC 12732.
Assay [2] relates to Salmonella typhimurium NBRC 12529.
In assay [3] the test system is Serratia marcescens NBRC 3046.
Assay [4] deals with Escherichia coli NBRC 12734.
Assay [5] concerns Bacillus subtilis NBRC 3513.
The subject of assay [6] is Staphylococcus epidermidis NBRC 12933.
Assay [7] relates to Pseudomonas aeruginosa NBRC 3080.
The subject of assay [8] is Enterococcus faecalis NBRC 3989.
In assay [9] the test system is Klebsiella pneumoniae NBRC 3317.
Assay [10] has as its system Bacillus megaterium ATCC 19213.
Assay [11] has as its system Aeromonas caviae IP67-16T.
Assay [12] relates to Nocardia brasiliensis IP16-80.
Assay [13] has as its system Enterococcus faecalis IP103214.
Assay [14] relates to Cryptococcus neoformans IP960-67.
Assay [15] concerns Staphylococcus aureus IP76-25.
For assay [16], the system named is Candida albicans IP884-65.
In assay [17] the test system is Trichophyton simii IP1063-74.
The subject of assay [18] is Saccharomyces cerevisiae IP118079.
The test system of assay [19] is Aspergillus fumigatus IP1025-70.
Assay [20] deals with Aspergillus niger IP218-53.
Assay [21] relates to Staphylococcus aureus FDA 209P.
Assay [22] relates to Bacillus subtilis PCI 219.
Assay [23] concerns Escherichia coli NIHJ JC-2.
Assay [24] has as its system Pseudomonas aeruginosa U-31.
Assay [25] has as its system Candida glabrata IOC 4565.
Assay [26] has as its system Pseudomonas aeruginosa ATCC 27853.
Assay [27] deals with Aspergillus fumigatus IOC 4526.
For assay [28], the system named is Candida tropicalis IOC 4560.
The test system of assay [29] is Cryptococcus neoformans ATCC 90112.
Assay [30] deals with Candida albicans ATCC 36802.
In assay [31] the test system is Cryptococcus neoformans IOC 4528.
In assay [32] the test system is Candida parapsilosis IOC 4564.
The test system of assay [33] is Staphylococcus aureus ATCC 29213.
The test system of assay [34] is Trichosporon sp. IOC 4569.
The test system of assay [35] is Trichophyton rubrum IOC 4527.
Assay [36] relates to Candida albicans IOC 4558.
Assay [37] deals with Micrococcus luteus NBRC 12708.

Molecules are shown by their SMILES. Values after ≈ are worked out from the molar mass of the structure shown.

What is called MIC is the lowest concentration that inhibits growth of the organism. Read a high MIC as a less susceptible organism. `CC[C@H](C)[C@H](NC(=O)[C@H](C)N)C(=O)N[C@@H](Cc1ccccc1)C(=O)N[C@H](C(=O)N[C@@H](Cc1ccccc1)C(=O)N[C@H](C(=O)N[C@@H](CCCN=C(N)N)C(=O)N[C@@H](Cc1c[nH]c2ccccc12)C(=O)N[C@@H](CC(C)C)C(=O)N[C@@H](CC(C)C)C(=O)N[C@@H](CCCCN)C(=O)N[C@@H](CC(C)C)C(=O)NCC(=O)N[C@@H](Cc1cnc[nH]1)C(=O)N[C@@H](Cc1cnc[nH]1)C(=O)NCC(=O)N[C@@H](CCCN=C(N)N)C(=O)N[C@@H](C)C(=O)N1CCC[C@H]1C(=O)N1CCC[C@H]1C(=O)O)[C@@H](C)CC)[C@@H](C)CC` [AIFIFIRWLLKLGHHGRAPP]: the MIC in [1] was 2 µM (≈ 4.69 µg/mL); in [2] it was at least 128 µM; in [3], at least 128 µM; in assay [4] it was at least 128 µM; in assay [5], 8 µM (≈ 18.7 µg/mL); in assay [6], 16 µM (≈ 37.5 µg/mL). Moreover, the MIC is at least 128 µM in assay [7], at least 128 µM in assay [8], at least 128 µM in assay [9] and 4 µM (≈ 9.37 µg/mL) in assay [10].
Regarding `CC[C@H](C)[C@H](NC(=O)CNC(=O)[C@H](CCCCN)NC(=O)[C@H](CC(C)C)NC(=O)[C@H](CCSC)NC(=O)[C@H](CC(N)=O)NC(=O)[C@H](CCCCN)NC(=O)[C@H](Cc1c[nH]c2ccccc12)NC(=O)[C@H](CC(C)C)NC(=O)[C@H](C)N)C(=O)NCC(=O)N[C@@H](CCCCN)C(=O)N[C@@H](CC(C)C)C(=O)N[C@@H](C)C(=O)NCC(N)=O` [ALWKNMLKGIGKLAG], the MIC is 3 µM (≈ 4.8 µg/mL) in [11]; at least 150 µM in [12]; 3 µM (≈ 4.8 µg/mL) in assay [13]; 3 µM (≈ 4.8 µg/mL) in assay [14]; at least 150 µM in assay [15]; 20 µM (≈ 32 µg/mL) in assay [16]. For the same compound, the minimal inhibitory concentration (MIC) in [17] was 30 µM (≈ 48 µg/mL); in the assay with Escherichia coli IP76-24, 3 µM (≈ 4.8 µg/mL); in [18], 10 µM (≈ 16 µg/mL); in assay [19] it was 20 µM (≈ 32 µg/mL); in assay [20], at least 40 µM.
As to `CC(C)C[C@H](NC(=O)[C@H](CC(C)C)NC(=O)[C@H](CCCCN)NC(=O)[C@H](CC(C)C)NC(=O)[C@H](CC(C)C)NC(=O)[C@H](CCCCN)NC(=O)[C@H](CCCCN)NC(=O)[C@H](Cc1c[nH]c2ccccc12)NC(=O)[C@H](CC(C)C)NC(=O)[C@H](CCCCN)NC(=O)[C@H](CC(C)C)NC(=O)[C@H](CC(C)C)NC(=O)[C@H](CC(C)C)NC(=O)[C@H](CCCCN)NC(=O)[C@H](CC(C)C)NC(=O)[C@H](CC(C)C)NC(=O)[C@@H](N)CCCCN)C(=O)N[C@@H](CCCCN)C(=O)O` [KLLKLLLKLWKKLLKLLK], the MIC in assay [21], in assay [22], in assay [23] and in [24] was at least 44.8 µM in each case.
As for `CSCC[C@H](NC(=O)[C@@H](N)CCCCN)C(=O)N[C@@H](CC(=O)O)C(=O)N[C@@H](CO)C(=O)N[C@@H](CCCN=C(N)N)C(=O)N[C@@H](Cc1c[nH]c2ccccc12)C(=O)N[C@@H](CCCN=C(N)N)C(=O)N[C@@H](Cc1c[nH]c2ccccc12)C(=O)N[C@@H](CCCCN)C(=O)N[C@@H](CO)C(=O)N[C@@H](CO)C(=O)N[C@@H](CCCCN)C(=O)N[C@@H](CCCCN)C(=O)O` [KMDSRWRWKSSKK], the minimum inhibitory concentration (MIC) in assay [25] was at least 46.4 µM; in [26], 16.4 µM (≈ 28.3 µg/mL); with Micrococcus luteus A270, 4.92 µM (≈ 8.49 µg/mL); in assay [27] it was at least 58 µM; in assay [28] it was at least 46.4 µM; in the assay on Candida krusei IOC 4559, at least 32.8 µM. Besides, the MIC in assay [29] is 4.92 µM (≈ 8.49 µg/mL); in assay [30], at least 58 µM; in assay [31], 4.92 µM (≈ 8.49 µg/mL); against Escherichia coli SBS 363, at least 46.4 µM; in [32], at least 46.4 µM; in [33] it was over 23.2 µM. In addition, the MIC in assay [34] was at least 32.8 µM; in assay [35], at least 58 µM; in [36] it was at least 46.4 µM.
Turning to `CC[C@H](C)[C@@H]1NC(=O)[C@H](C)NC(=O)[C@H](CC(C)C)NC(=O)[C@@H]2CSSC[C@@H](C(=O)N[C@@H](CCCN=C(N)N)C(=O)N[C@@H](CCCN=C(N)N)C(=O)O)NC(=O)[C@H](C(C)C)NC(=O)[C@@H]3CSSC[C@H](NC(=O)[C@H](CC(C)C)NC(=O)[C@H](CO)NC(=O)[C@H](Cc4cnc[nH]4)NC(=O)[C@H](CC(N)=O)NC(=O)[C@H](C)NC(=O)[C@H](C)NC(=O)[C@H](Cc4ccccc4)NC(=O)CNC(=O)[C@H](CCCCN)NC(=O)[C@H](C)NC(=O)[C@H](CCC(=O)O)NC(=O)[C@H](Cc4ccccc4)NC(=O)[C@H](CO)NC(=O)[C@H](CC(C)C)NC(=O)[C@H](CC(C)C)NC(=O)[C@H](CC(=O)O)NC(=O)[C@@H](NC(=O)[C@@H](NC(=O)[C@@H](N)CC(C)C)[C@@H](C)O)CSSC[C@H](NC(=O)[C@H](C)NC(=O)CNC(=O)CNC(=O)[C@H](CCCCN)NC(=O)[C@H](CCCN=C(N)N)NC(=O)CNC1=O)C(=O)N[C@@H](CCC(N)=O)C(=O)N[C@@H](CC(N)=O)C(=O)NCC(=O)N[C@@H](C(C)C)C(=O)N3)C(=O)N[C@@H](C)C(=O)N[C@@H](C)C(=O)N[C@@H](Cc1cnc[nH]1)C(=O)N2` [LTCDLLSFEAKGFAANHSLCAAHCLAIGRKGGACQNGVCVCRR], the MIC is 0.112 µM in assay [1] and 1.12 µM in assay [37].
For the compound `CSCC[C@H](N)C(=O)N[C@@H](C)C(=O)N[C@@H](C)C(=O)N[C@@H](CCCN=C(N)N)C(=O)N[C@@H](C)C(=O)N[C@@H](C)C(=O)N[C@@H](CCCN=C(N)N)C(=O)N[C@@H](CC(C)C)C(=O)N[C@@H](C)C(=O)N[C@@H](C)C(=O)N[C@@H](CCCN=C(N)N)C(=O)N[C@@H](CC(C)C)C(=O)N[C@@H](C)C(=O)N[C@@H](CCCN=C(N)N)C(=O)N[C@@H](CC(C)C)C(=O)N[C@@H](C)C(=O)N[C@@H](CC(C)C)C(=O)N[C@@H](CCCN=C(N)N)C(=O)N[C@@H](C)C(=O)N[C@@H](CC(C)C)C(=O)O` [MAARAARLAARLARLALRAL], the minimum inhibitory concentration (MIC) with Carnobacterium mobile stood at 0.0025 µM (≈ 0.00534 µg/mL); against Fusarium oxysporum, 0.1 µM (≈ 0.214 µg/mL).

Source of the values: DBAASP.
